Measurements from US6737383B1, “Herbicidal oxadiazolidines” (priority 1999, dated 2004).

Legend:
[1] = system: bedstraw; test: Test B pre/postemergence bedstraw; assay type: in vivo, Galium aparine
How it was run: (§1)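 Herbicidal effect was estimated by eye on a ten-point control scale after plants spent twelve to sixteen days in a greenhouse following soil or foliar treatment. Foliar sprays targeted plants at one to four leaves; all doses were formulated in a non-phytotoxic solvent with surfactant.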

[2] = system: velvetleaf; test: Test B pre/postemergence velvetleaf; assay type: in vivo, Abutilon theophrasti
How it was run: as §1

[3] = system: blackgrass; test: Test B pre/postemergence blackgrass; assay type: in vivo, Alopecurus myosuroides
How it was run: as §1

[4] = system: purple nutsedge; test: Test B pre/postemergence purple nutsedge; assay type: in vivo, Cyperus rotundus
How it was run: as §1

[5] = system: soybean; test: Test B pre/postemergence soybean; assay type: in vivo, Glycine max
How it was run: as §1

[6] = system: pigweed; test: Test B pre/postemergence pigweed; assay type: in vivo, Amaranthus retroflexus
How it was run: as §1

[7] = system: duck salad; test: Test B flood test duck salad; assay type: in vivo, Heteranthera limosa
How it was run: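 Each value is a visual injury score relative to controls, with 10 meaning complete control and 0 no effect. Evaluation took place twelve to sixteen days after the 2-leaf-stage plants were treated and kept in the greenhouse.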

[8] = system: surinam grass; test: Test B pre/postemergence surinam grass; assay type: in vivo, Brachiaria decumbens
How it was run: as §1

[9] = system: corn; test: Test B pre/postemergence corn; assay type: in vivo, Zea mays
How it was run: as §1

[10] = system: wheat; test: Test B pre/postemergence wheat; assay type: in vivo, Triticum aestivum
How it was run: as §1

[11] = system: giant foxtail; test: Test B pre/postemergence giant foxtail; assay type: in vivo, Setaria faberii
How it was run: as §1

[12] = system: rape; test: Test B pre/postemergence rape; assay type: in vivo, Brassica napus
How it was run: as §1

[13] = system: morningglory; test: Test B pre/postemergence morningglory; assay type: in vivo, Ipomoea hederacea
How it was run: as §1

[14] = system: wild oat; test: Test B pre/postemergence wild oat; assay type: in vivo, Avena fatua
How it was run: as §1

[15] = system: crabgrass; test: Test B pre/postemergence crabgrass; assay type: in vivo, Digitaria sanguinalis
How it was run: as §1

[16] = Postemergence, Rate 62 g/ha, scale of 0 to 10, 0 is no effect, 10 is complete control
[17] = Postemergence, Rate 125 g/ha, scale 0 to 10, 0 is no effect, 10 is complete control
[18] = Postemergence, Rate 500 g/ha, scale 0 to 10, 0 is no effect, 10 is complete control
[19] = Preemergence, Rate 62 g/ha, scale 0 to 10 (0 no effect, 10 complete control)
[20] = Preemergence, Rate 125 g/ha, scale 0 to 10, 0 is no effect, 10 is complete control
[21] = Preemergence, Rate 500 g/ha, scale of 0 to 10 where 0 is no effect and 10 is complete control
[22] = Rate 250 g/ha, Postemergence, scale of 0 to 10 where 0 is no effect and 10 is complete control

## CCC=CCn1c(=O)on(C(=O)N(c2ccc(Cl)cc2)C(C)C)c1=O [Compound 552]
[1]; [16]
  Bedstraw plant response rating: 2
[1]; [17]
  Bedstraw plant response rating: 5
[1]; [18]
  Plant response rating, Bedstraw: 10
[1]; [19]
  Bedstraw plant response rating: 0
[1]; [20]
  Bedstraw plant response rating: 0
[1]; Preemergence, Rate 250 g/ha
  Bedstraw plant response rating (0 to 10 scale): 0
[1]; [21]
  Bedstraw plant response rating: 8
[1]; [22]
  Plant response rating, Bedstraw: 10
[2]; [16]
  Velvetleaf plant response rating: 0
[2]; [18]
  Plant response rating, Velvetleaf: 3
[2]; [19]
  Velvetleaf plant response rating: 0
[2]; [20]
  Velvetleaf plant response rating: 0
[2]; Preemergence, Rate 250 g/ha
  Velvetleaf plant response rating (0 to 10 scale): 0
[2]; [21]
  Velvetleaf plant response rating: 0
[2]; [22]
  Plant response rating, Velvetleaf: 2
[3]; [16]
  Blackgrass plant response rating: 0
[3]; [17]
  Blackgrass plant response rating: 0
[3]; [18]
  Plant response rating, Blackgrass: 7
[3]; [19]
  Blackgrass plant response rating: 0
[3]; [20]
  Blackgrass plant response rating: 0
[3]; Preemergence, Rate 250 g/ha
  Blackgrass plant response rating (0 to 10 scale): 0
[3]; [21]
  Blackgrass plant response rating: 8
[3]; [22]
  Plant response rating, Blackgrass: 0
[4]; [16]
  Nutsedge plant response rating: 0
[4]; [17]
  Nutsedge plant response rating: 0
[4]; [18]
  Plant response rating, Nutsedge: 0
[4]; [19]
  Nutsedge plant response rating: 0
[4]; [20]
  Nutsedge plant response rating: 0
[4]; Preemergence, Rate 250 g/ha
  Nutsedge plant response rating (0 to 10 scale): 0
[4]; [21]
  Nutsedge plant response rating: 0
[4]; [22]
  Plant response rating, Nutsedge: 0
[5]; [16]
  Soybean plant response rating: 2
[5]; [18]
  Plant response rating, Soybean: 3
[5]; [19]
  Soybean plant response rating: 0
[5]; [20]
  Soybean plant response rating: 0
[5]; Preemergence, Rate 250 g/ha
  Soybean plant response rating (0 to 10 scale): 0
[5]; [21]
  Soybean plant response rating: 0
[5]; [22]
  Plant response rating, Soybean: 3
[6]; [16]
  Redroot pigweed plant response rating: 0
[6]; [18]
  Plant response rating, Redroot pigweed: 3
[6]; [19]
  Redroot pigweed plant response rating: 0
[6]; [20]
  Redroot pigweed plant response rating: 4
[6]; Preemergence, Rate 250 g/ha
  Redroot pigweed plant response rating (0 to 10 scale): 4
[6]; [21]
  Redroot pigweed plant response rating: 4
[6]; [22]
  Plant response rating, Redroot pigweed: 0
[7]; Rate 62 g/ha, flood test species, Pre-emergence, visual evaluation after twelve to sixteen days
  Plant response rating, Ducksalad (0 to 10 scale, 0 is no effect, 10 is complete control): 0
[7]; Rate 125 g/ha, under heading Pre-emergence, flood test species, visual evaluation after twelve to sixteen days
  Ducksalad plant response rating (0 to 10 scale, 0 is no effect, 10 is complete control): 0
[7]; Rate 250 g/ha, Pre-emergence (flood test species), scale 0 to 10, 0 is no effect, 10 is complete control
  Ducksalad plant response rating: 0
[7]; Rate 500 g/ha, Pre-emergence section of Table B, 0 to 10 scale (0 no effect, 10 complete control)
  Ducksalad plant response rating: 0
[8]; [16]
  B. signalgrass plant response rating: 0
[8]; [17]
  B. signalgrass plant response rating: 0
[8]; [18]
  Plant response rating, B. signalgrass: 0
[8]; [19]
  B. signalgrass plant response rating: 4
[8]; [20]
  B. signalgrass plant response rating: 8
[8]; [21]
  B. signalgrass plant response rating: 9
[8]; [22]
  Plant response rating, B. signalgrass: 0
[9]; [16]
  Corn plant response rating: 0
[9]; [17]
  Corn plant response rating: 0
[9]; [18]
  Plant response rating, Corn: 0
[9]; [19]
  Corn plant response rating: 0
[9]; [20]
  Corn plant response rating: 0
[9]; Preemergence, Rate 250 g/ha
  Corn plant response rating (0 to 10 scale): 0
[9]; [21]
  Corn plant response rating: 0
[9]; [22]
  Plant response rating, Corn: 0
[10]; [16]
  Wheat plant response rating: 0
[10]; [18]
  Plant response rating, Wheat: 3
[10]; [19]
  Wheat plant response rating: 0
[10]; [20]
  Wheat plant response rating: 0
[10]; Preemergence, Rate 250 g/ha
  Wheat plant response rating (0 to 10 scale): 0
[10]; [21]
  Wheat plant response rating: 4
[10]; [22]
  Plant response rating, Wheat: 0
[11]; [16]
  Giant foxtail plant response rating: 0
[11]; [17]
  Giant foxtail plant response rating: 3
[11]; [18]
  Plant response rating, Giant foxtail: 7
[11]; [19]
  Giant foxtail plant response rating: 9
[11]; [20]
  Giant foxtail plant response rating: 10
[11]; Preemergence, Rate 250 g/ha
  Giant foxtail plant response rating (0 to 10 scale): 10
[11]; [21]
  Giant foxtail plant response rating: 10
[11]; [22]
  Plant response rating, Giant foxtail: 3
[12]; [16]
  Rape plant response rating: 2
[12]; [17]
  Rape plant response rating: 6
[12]; [18]
  Plant response rating, Rape: 7
[12]; [19]
  Rape plant response rating: 0
[12]; [20]
  Rape plant response rating: 0
[12]; Preemergence, Rate 250 g/ha
  Rape plant response rating (0 to 10 scale): 0
[12]; [21]
  Rape plant response rating: 0
[12]; [22]
  Plant response rating, Rape: 4
[13]; [16]
  Morningglory plant response rating: 1
[13]; [17]
  Morningglory plant response rating: 1
[13]; [18]
  Plant response rating, Morningglory: 7
[13]; [19]
  Morningglory plant response rating: 0
[13]; [20]
  Morningglory plant response rating: 0
[13]; Preemergence, Rate 250 g/ha
  Morningglory plant response rating (0 to 10 scale): 0
[13]; [21]
  Morningglory plant response rating: 0
[13]; [22]
  Plant response rating, Morningglory: 2
[14]; [16]
  Wild oats plant response rating: 0
[14]; [18]
  Plant response rating, Wild oats: 3
[14]; [19]
  Wild oats plant response rating: 0
[14]; [20]
  Wild oats plant response rating: 0
[14]; Preemergence, Rate 250 g/ha
  Wild oats plant response rating (0 to 10 scale): 0
[14]; [21]
  Wild oats plant response rating: 6
[14]; [22]
  Plant response rating, Wild oats: 0
[15]; [16]
  Crabgrass plant response rating: 3
[15]; [17]
  Crabgrass plant response rating: 9
[15]; [18]
  Plant response rating, Crabgrass: 9
[15]; [19]
  Crabgrass plant response rating: 9
[15]; [20]
  Crabgrass plant response rating: 9
[15]; Preemergence, Rate 250 g/ha
  Crabgrass plant response rating (0 to 10 scale): 8
[15]; [21]
  Crabgrass plant response rating: 10
